Reference: US7867978B2, “Methods and compositions for treating neurological disorders” (The University of Kentucky Research Foundation, priority 2007, dated 2011)
Entries after “also recorded” stand apart in the source; their conditions may differ. Ends that are not written are not given here.

How the values were obtained:
iNOS [1] = assay: iNOS activity in cell lines stably transfected with Kalirin-7, iNOS induced by iNOS plasmid, LPS or LPS plus Aβ1-42; format: cell-based; settings: for iNOS activity: AtT20, SH-SY5Y, Neuro2A and C6 cell lines, iNOS raised by iNOS plasmid, LPS, or LPS plus Aβ1-42, Canavanine or L-NAME 10 mM; for Aβ1-42-augmented iNOS activity: LPS plus Aβ1-42 treated cell lines
Method: Assays for iNOS and NOS—The hippocampal and cerebellar specimens and the transfected cells were homogenized in 50 mM Tris HCl (pH 7.4), 1 mM EDTA, 0.1 mM tetrahydrobiopterin, 2 mM dithiothreitol, 10% (v/v) glycerol, aprotinin (25 μg/ml), leupeptin (25 μg/ml), 100 μM PMSF, 10 μM FMN, and 10 μM FAD. The homogenates were centrifuged at 2,000×g for 15 min, and the supernatants were assayed for iNOS. iNOS was also assayed in the presence of 10 mM Canavanine (Sigma) or L-NAME (Sigma). The collective activity of NOS (including eNOS, nNOS and iNOS) was determined in an identical fashion to iNOS activity, but in the presence of 1.25 mM Ca^2+.
Preparation of Aβ1-42 peptide—One mM of A β1-42 (Biosource) was prepared in a capped vial at 37° C. for 5 days, and stored at −20° C. The frozen stock solution was diluted and used at the final concentration of 10 μM.
Cell culture and transfection—AtT-20 cells (ATCC# CCL-89), SH-SY5Y cells (ATCC# CRL-2266), C6 cells (ATCC# CCL-107) and Neuro-2A cells (ATCC # CCL-131) were cultured according to the supplier's instructions. Each cell line was grown in a 25 cm^2 flask, stably transfected with pcDNA4 vector carrying Kalirin-7 or pcDNA3 carrying iNOS, using SuperFect transfection reagents (Qiagen) following the manufacture's instructions. Stable cell lines were selected using 0.5 mg/ml of G-418 for pcDNA3 or 0.12 μg/ml of zeocin for pcDNA4.
To induce the iNOS activity, cell lines were transfected with iNOS in pcDNA3 or stimulated with 3 μg/ml of lipopolysaccharides (LPS) for 12-16 h (27) or 10 μM A β1-42 peptide for 18 h. Two different approaches of double transfection with Kalirin-7 and iNOS were used to determine the effects of Kalirin-7 on iNOS. The cell line stably expressing Kalirin-7 was transiently transfected with iNOS, and conversely, the cell line stably expressing iNOS was transiently transfected with increasing amounts of pcDNA4 carrying Kalirin-7 or Kalirin domains.

iNOS [2] = target: T1, iNOS (Homo sapiens, UniProt P35228); assay: iNOS activity in AtT-20 cells stably expressing iNOS, transiently transfected with Kalirin-7, Kalirin domain or section plasmids; format: cell-based, mouse
T1 construct: expressed in transfected cells
T1 sequence (P35228 whole entry, species assumed, the tested form may be a part): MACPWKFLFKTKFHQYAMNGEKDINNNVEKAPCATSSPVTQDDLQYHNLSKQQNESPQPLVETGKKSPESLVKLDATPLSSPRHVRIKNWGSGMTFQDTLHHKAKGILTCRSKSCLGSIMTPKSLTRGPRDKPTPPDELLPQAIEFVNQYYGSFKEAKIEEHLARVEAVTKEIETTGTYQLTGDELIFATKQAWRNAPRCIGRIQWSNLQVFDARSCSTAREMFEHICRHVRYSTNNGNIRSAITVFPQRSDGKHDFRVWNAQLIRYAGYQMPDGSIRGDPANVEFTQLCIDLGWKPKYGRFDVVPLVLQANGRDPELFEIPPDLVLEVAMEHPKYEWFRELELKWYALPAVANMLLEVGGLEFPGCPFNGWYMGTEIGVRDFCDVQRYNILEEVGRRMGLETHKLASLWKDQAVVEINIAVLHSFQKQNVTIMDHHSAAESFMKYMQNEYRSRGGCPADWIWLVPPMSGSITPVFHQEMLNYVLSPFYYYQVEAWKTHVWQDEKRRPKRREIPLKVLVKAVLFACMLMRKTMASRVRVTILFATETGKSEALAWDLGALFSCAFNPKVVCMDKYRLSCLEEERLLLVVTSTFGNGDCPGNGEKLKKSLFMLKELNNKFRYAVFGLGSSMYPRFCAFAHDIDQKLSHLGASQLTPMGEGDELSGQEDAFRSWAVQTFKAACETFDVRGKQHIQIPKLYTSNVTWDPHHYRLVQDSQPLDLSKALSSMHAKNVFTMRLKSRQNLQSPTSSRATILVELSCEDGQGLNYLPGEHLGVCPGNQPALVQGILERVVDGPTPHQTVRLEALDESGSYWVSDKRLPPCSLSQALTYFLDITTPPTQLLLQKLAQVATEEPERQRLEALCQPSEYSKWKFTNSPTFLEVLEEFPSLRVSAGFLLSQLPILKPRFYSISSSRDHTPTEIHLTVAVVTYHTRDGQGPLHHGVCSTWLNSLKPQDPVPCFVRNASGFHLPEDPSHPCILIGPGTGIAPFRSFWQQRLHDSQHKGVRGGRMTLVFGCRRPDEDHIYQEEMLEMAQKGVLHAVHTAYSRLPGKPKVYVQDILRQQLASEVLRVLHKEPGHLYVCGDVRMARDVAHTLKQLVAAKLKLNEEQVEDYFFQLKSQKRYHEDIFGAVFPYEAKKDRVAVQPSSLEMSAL
Method: Assays for iNOS and NOS-The hippocampal and cerebellar specimens and the transfected cells were homogenized in 50 mM Tris HCl (pH 7.4), 1 mM EDTA, 0.1 mM tetrahydrobiopterin, 2 mM dithiothreitol, 10% (v/v) glycerol, aprotinin (25 μg/ml), leupeptin (25 μg/ml), 100 μM PMSF, 10 μM FMN, and 10 μM FAD. […] The collective activity of NOS (including eNOS, nNOS and iNOS) was determined in an identical fashion to iNOS activity, but in the presence of 1.25 mM Ca^2+. Cell culture and transfection-AtT-20 cells (ATCC# CCL-89), SH-SY5Y cells (ATCC# CRL-2266), C6 cells (ATCC# CCL-107) and Neuro-2A cells (ATCC # CCL-131) were cultured according to the supplier's instructions. Each cell line was grown in a 25 cm^2 flask, stably transfected with pcDNA4 vector carrying […]-7 or pcDNA3 carrying iNOS, using SuperFect transfection reagents (Qiagen) following the manufacture's instructions. Stable cell lines were selected using 0.5 mg/ml of G-418 for pcDNA3 or 0.12 μg/ml of zeocin for pcDNA4. To induce the iNOS activity, cell lines were transfected with iNOS in pcDNA3 or stimulated with 3 μg/ml of lipopolysaccharides (LPS) for 12-16 h (27) or 10 μM A β1-42 peptide for 18 h. Two different approaches of double transfection with […]-7 and iNOS were used to determine the effects of […]-7 on iNOS. The cell line stably expressing […]-7 was transiently transfected with iNOS, and conversely, the cell line stably expressing iNOS was transiently transfected with increasing amounts of pcDNA4 carrying […]-7 or […] domains.

[3] = system: AtT-20 cells stably expressing iNOS; assay: Renilla luciferase assay as transfection reference for toxic effect of plasmid DNA; format: cell-based, mouse; settings: increasing plasmid amounts co-transfected with constant pRL-TK vector
Method: To test the putative toxic effect of high concentrations of plasmid DNA, up to 2.5 μg, the Renilla luciferase assay (Promega) was used as a transfection reference. The AtT-20 cells stably expressing iNOS were transiently transfected with a constant amount of the pRL-TK vector (Promega) carrying Renilla luciferase and increasing amounts of the Kalirin plasmid. The co-transfected cells were assayed for iNOS and luciferase following the manufacturer's instructions.

iNOS [4] = target: T1, iNOS; assay: Co-immunoprecipitation of iNOS with Kalirin-7 by anti-Kalirin in co-transfected AtT-20 cells; format: binding; settings: increasing amounts of Kalirin-7 plasmid
Method: Immunoblot and immunoprecipitation—Proteins were extracted. Brain samples were directly solubilized in 10 volume of lysis buffer (50 mM Tris HCl at pH 7.5, 120 mM NaCl, 5 mM EDTA, 1% Nonidet P-40 (0.3 mg/ml), 8 μg/ml aprotinin, 2 μg/ml pepstatin A, 2 μg/ml leupeptin, 1 mM Na3VO4, 50 mM NaF and 0.2% of SDS) using Omni 2000 homogenizer (Omni International Inc). The solubilized samples were centrifuged at 15,000×g for 10 min, the supernatants were saved, and protein concentration was measured by the Bradford method. Cultured cells were suspended in another lysis buffer consisting of 100 mM Tris HCl (pH7.5), 150 mM NaCl, 2 mM EDTA, 0.5% of Triton X-100, 1 mM PMSF, 4 μg/ml aprotinin, 1 μg/ml pepstatin A, 1 μg/ml leupeptin, 1 mM Na3VO4, 50 mM NaF and 0.2% of SDS), and processed.
An equal protein-amount of solubilized supernatants was resolved by SDS-PAGE and blotted onto polyvinylidene difluoride membrane. The membranes were incubated for 1 h in blocking solution containing 3% bovine serum albumin. The membranes were incubated for 1 h with primary antibodies diluted 1:500 in Tris-buffered saline containing 0.1% Tween 20. After washing, membranes were incubated for 1 h in 1:10,000 dilution of secondary antibodies coupled to horseradish peroxidase. […] Blots were scanned, and the band intensity was digitized and quantified using Molecular Dynamics Image Quant 5.1. […]

Molecule: N=C(N)NOCC[C@H](N)C(=O)O [Canavanine]
- iNOS activity (iNOS [1]): suppressed to basal levels
- Aβ1-42-augmented iNOS activity (iNOS [1]): attenuated

Molecule: COC(=O)[C@@H](N)CCCNC(=N)N[N+](=O)[O-] [L-NAME]
- iNOS activity (iNOS [1]): suppressed to basal levels
- Aβ1-42-augmented iNOS activity (iNOS [1]): attenuated

Molecule: Aβ1-42: amyloidogenic peptide Aβ1-42 (Biosource), used at 10 μM
- iNOS activity induced by LPS treatment (iNOS [1]; LPS plus 10 μM Aβ1-42, stable cell lines): augments iNOS activity

Molecule: D2: Kalirin domain consisting of the 354 amino acid V506-Q860 sequence of SEQ ID NO:2, expressed from pcDNA4
- iNOS activity (iNOS [2]; transient transfection with pcDNA4 carrying individual Kalirin-7 domains): attenuated; also recorded: most notably attenuated

Molecule: KAARHLEVRIQDFVRRVEQRKLLLDMSVSFHTH (also: Flag epitope tag; listed as Homo sapiens) [section # 8]
- suppression of iNOS versus plasmid concentration (iNOS [2]; increasing amounts of Kalirin section 8 plasmid): dependent on the concentration
- iNOS suppression (iNOS [2]; transient transfection with pcDNA4 carrying individual 33 amino acid sections, compared with D2 and wild type Kalirin 7): suppressed most effectively

Molecule: Kalirin-7: cytoplasmic protein of >1,660 amino acids (SEQ ID NO:2), expressed from pcDNA4 carrying the Kalirin-7 cDNA
- synthesis and activity of Renilla luciferase (putative toxic effect of plasmid) [3]: did not impair
- iNOS co-immunoprecipitated by anti-Kalirin (iNOS [4]): increasing concentrations of iNOS were co-immunoprecipitated
- iNOS activity (iNOS [1]): suppressed to basal levels
- Aβ1-42-augmented iNOS activity (iNOS [1]): attenuated
- iNOS activity (iNOS [2]; increasing amounts of pcDNA4 Kalirin-7 vector): decreased
